{"source": "paper PMC9942948", "about": "(Journal of medicinal chemistry, 2022)", "key": {"[1]": {"target": "WT Polθ (Homo sapiens, UniProt O75417)", "sequence (O75417 whole entry)": "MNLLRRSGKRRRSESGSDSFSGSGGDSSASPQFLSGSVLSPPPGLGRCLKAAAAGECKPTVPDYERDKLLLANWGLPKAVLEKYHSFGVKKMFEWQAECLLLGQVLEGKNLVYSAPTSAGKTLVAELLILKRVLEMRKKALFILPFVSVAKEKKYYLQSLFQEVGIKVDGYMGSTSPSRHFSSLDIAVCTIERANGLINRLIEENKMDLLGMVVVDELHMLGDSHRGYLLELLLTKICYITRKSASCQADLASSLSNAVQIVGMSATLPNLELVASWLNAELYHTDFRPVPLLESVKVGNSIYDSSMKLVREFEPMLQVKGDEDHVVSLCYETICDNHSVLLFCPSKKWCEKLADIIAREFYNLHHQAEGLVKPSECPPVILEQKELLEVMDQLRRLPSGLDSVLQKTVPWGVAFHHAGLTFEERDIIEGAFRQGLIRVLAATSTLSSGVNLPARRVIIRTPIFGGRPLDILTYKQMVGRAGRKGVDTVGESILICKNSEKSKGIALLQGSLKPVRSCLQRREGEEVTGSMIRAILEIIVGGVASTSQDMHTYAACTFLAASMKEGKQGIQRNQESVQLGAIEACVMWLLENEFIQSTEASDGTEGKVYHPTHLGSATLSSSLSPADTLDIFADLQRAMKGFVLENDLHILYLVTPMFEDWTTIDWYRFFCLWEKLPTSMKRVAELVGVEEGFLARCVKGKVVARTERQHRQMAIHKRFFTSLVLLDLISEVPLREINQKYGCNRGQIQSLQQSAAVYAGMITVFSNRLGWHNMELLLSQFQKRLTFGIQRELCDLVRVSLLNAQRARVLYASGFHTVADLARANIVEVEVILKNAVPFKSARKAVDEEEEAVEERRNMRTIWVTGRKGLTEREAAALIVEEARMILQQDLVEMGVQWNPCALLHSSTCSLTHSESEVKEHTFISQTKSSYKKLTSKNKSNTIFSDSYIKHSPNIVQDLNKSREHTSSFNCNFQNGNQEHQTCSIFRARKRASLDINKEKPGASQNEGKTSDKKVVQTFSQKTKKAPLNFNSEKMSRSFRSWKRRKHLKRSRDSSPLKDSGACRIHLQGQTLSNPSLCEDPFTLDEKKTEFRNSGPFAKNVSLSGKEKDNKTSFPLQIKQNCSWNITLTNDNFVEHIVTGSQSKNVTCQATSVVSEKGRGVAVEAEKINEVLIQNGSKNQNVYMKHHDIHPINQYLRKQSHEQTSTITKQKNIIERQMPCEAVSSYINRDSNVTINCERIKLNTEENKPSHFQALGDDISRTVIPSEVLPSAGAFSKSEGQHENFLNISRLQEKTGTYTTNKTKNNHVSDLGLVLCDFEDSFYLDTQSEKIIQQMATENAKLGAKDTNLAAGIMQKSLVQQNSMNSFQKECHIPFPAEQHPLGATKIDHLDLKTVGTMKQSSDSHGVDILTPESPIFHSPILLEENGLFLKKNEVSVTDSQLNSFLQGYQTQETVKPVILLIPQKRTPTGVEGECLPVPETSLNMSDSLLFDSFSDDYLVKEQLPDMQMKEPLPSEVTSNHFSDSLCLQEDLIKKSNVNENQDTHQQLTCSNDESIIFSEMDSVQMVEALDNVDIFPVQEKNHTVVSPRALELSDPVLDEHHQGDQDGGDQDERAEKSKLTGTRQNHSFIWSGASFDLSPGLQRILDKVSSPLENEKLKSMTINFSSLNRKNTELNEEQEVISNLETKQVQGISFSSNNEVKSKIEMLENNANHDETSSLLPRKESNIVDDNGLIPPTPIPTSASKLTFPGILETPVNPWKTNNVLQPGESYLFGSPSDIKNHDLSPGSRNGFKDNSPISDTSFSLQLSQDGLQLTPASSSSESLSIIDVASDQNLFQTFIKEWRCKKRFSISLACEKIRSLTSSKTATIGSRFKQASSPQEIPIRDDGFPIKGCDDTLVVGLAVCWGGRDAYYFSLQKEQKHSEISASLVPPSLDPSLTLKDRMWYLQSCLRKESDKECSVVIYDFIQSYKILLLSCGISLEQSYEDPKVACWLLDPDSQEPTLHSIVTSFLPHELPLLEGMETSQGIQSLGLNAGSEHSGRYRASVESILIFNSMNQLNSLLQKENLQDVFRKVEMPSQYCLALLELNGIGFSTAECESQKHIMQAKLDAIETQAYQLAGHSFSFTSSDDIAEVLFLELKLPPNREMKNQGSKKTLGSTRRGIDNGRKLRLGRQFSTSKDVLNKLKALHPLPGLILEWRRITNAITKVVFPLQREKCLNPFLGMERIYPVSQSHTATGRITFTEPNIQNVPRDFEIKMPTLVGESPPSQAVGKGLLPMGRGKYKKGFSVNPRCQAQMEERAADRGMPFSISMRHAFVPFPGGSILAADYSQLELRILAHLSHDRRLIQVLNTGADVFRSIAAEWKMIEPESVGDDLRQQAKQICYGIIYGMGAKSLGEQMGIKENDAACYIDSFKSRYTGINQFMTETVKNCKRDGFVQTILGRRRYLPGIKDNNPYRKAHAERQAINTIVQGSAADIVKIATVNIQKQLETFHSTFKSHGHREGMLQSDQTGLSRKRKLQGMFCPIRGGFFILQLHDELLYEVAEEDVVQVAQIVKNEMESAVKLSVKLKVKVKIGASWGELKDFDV", "assay": "Differential Scanning Fluorimetry", "type": "binding", "conditions": "compound alone, no DNA"}, "[2]": {"assay": "Metabolite identification in human microsomes", "type": "in vitro ADME"}, "[3]": {"assay": "Metabolite identification in mouse microsomes", "type": "in vitro ADME"}, "[4]": {"assay": "Mouse liver microsomal stability", "type": "in vitro ADME", "conditions": "liver microsomes"}, "[5]": {"assay": "Tolerability in the xenograft study", "type": "in vivo"}, "[6]": {"target": "Pol ε (Homo sapiens, UniProt Q07864)", "sequence (Q07864 whole entry)": "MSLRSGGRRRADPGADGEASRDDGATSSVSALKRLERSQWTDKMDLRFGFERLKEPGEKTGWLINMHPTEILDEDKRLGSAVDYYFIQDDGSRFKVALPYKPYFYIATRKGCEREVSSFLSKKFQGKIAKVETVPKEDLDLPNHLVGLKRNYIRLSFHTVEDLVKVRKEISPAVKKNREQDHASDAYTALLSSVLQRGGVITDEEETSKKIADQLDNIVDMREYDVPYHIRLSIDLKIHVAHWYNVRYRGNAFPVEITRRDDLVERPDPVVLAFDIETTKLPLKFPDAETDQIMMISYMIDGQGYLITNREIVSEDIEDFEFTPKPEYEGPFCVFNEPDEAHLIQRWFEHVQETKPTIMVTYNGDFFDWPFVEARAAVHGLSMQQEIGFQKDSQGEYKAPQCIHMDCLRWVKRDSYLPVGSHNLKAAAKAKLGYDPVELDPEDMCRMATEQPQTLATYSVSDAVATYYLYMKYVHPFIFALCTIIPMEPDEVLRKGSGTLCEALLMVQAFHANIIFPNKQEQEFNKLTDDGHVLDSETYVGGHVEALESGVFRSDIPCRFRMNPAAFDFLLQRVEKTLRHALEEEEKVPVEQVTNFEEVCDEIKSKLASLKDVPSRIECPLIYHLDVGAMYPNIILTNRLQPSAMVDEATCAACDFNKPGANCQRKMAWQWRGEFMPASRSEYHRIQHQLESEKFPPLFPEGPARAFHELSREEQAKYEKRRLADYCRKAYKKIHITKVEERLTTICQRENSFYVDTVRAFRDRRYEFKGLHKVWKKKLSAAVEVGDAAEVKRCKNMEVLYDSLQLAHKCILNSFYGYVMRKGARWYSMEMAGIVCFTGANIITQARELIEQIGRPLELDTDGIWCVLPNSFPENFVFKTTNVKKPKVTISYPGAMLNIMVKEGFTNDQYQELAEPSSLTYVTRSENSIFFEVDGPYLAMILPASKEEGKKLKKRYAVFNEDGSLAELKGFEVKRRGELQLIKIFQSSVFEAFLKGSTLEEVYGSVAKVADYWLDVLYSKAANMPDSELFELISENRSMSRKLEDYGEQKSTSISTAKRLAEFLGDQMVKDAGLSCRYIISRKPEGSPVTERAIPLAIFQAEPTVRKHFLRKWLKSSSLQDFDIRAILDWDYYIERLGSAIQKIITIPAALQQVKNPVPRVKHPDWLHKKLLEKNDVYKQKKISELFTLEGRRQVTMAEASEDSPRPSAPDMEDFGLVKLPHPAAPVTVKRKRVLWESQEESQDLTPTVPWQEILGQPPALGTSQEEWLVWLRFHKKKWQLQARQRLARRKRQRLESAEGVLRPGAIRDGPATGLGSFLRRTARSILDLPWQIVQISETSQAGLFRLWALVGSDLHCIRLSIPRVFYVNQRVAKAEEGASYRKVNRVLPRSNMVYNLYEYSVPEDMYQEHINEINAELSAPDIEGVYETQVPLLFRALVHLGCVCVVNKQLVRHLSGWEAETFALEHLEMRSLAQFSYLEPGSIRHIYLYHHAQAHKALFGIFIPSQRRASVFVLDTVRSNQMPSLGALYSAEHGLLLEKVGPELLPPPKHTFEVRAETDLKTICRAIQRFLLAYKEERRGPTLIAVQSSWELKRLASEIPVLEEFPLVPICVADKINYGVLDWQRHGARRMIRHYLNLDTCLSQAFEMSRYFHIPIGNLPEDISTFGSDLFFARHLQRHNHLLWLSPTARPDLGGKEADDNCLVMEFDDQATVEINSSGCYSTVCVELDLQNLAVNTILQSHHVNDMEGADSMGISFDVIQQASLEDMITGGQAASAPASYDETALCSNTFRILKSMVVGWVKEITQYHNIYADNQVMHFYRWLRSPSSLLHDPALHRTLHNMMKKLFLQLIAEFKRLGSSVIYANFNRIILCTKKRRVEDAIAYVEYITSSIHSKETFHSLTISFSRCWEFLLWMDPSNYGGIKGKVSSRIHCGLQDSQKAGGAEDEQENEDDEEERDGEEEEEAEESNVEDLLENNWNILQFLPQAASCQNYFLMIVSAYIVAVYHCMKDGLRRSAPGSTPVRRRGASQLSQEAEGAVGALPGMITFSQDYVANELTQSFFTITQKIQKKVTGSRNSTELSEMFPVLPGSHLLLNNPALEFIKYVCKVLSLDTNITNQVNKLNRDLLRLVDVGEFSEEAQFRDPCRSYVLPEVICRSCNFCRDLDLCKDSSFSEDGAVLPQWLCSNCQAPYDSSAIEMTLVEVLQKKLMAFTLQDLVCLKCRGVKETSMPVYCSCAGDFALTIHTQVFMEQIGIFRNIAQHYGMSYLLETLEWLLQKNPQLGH", "assay": "DNA polymerase selectivity, Pol ε"}, "[7]": {"target": "full-length Polθ (aa 1–2590), ATPase activity (Homo sapiens, UniProt O75417)", "sequence (O75417 whole entry, the tested form may be a part)": "as the sequence (O75417 whole entry) above", "assay": "Full-length Polθ ATPase activity", "type": "biochemical"}, "[8]": {"target": "T1, Pol λ (Homo sapiens, UniProt Q9UGP5)", "T1 sequence (Q9UGP5 1-575)": "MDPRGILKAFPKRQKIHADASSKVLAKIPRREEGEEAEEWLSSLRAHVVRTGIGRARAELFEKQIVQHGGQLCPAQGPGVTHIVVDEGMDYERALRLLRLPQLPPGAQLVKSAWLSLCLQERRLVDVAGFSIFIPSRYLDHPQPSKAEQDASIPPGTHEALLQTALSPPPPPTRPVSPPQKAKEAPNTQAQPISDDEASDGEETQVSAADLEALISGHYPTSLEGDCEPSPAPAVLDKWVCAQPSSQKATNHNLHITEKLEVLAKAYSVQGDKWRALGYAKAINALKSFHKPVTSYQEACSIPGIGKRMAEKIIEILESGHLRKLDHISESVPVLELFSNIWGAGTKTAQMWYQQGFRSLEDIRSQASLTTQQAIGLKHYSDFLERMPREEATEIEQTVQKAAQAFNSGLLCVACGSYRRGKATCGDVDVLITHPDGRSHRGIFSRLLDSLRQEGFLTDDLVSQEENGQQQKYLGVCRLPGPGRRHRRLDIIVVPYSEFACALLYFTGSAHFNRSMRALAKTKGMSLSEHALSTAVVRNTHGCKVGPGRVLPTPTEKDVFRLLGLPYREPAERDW", "assay": "DNA polymerase selectivity, Pol λ"}, "[9]": {"system": "HCT116 BRCA2+/+ xenograft tumors", "assay": "HCT116 BRCA2+/+ xenograft efficacy", "type": "in vivo, mouse", "conditions": "80 mg/kg BID PO, 21 days"}, "[10]": {"assay": "in vitro", "type": "in vitro ADME, canine", "conditions": "dog, MDCK"}, "[11]": {"system": "HCT116 BRCA2−/− xenograft tumor cells", "assay": "PD markers by immunofluorescence in cells isolated from tumors", "type": "in vivo, mouse"}, "[12]": {"assay": "Mouse PK, iv/po in CD1 mice", "type": "in vivo", "conditions": "female, whole blood, 2.5 mg/kg"}, "[13]": {"system": "Polθ-mediated MMEJ repair at AAVS1 locus in HCT116 WT cells", "assay": "Cas9-induced double-strand DNA break assay", "type": "cell-based", "conditions": "Homo sapiens, HCT-116, read-out: potency in DSB repair of AAVS1 loci"}, "[14]": {"system": "MMEJ in 293T-Lig4−/−TLR1.1 cells", "assay": "Traffic-light reporter assay", "type": "cell-based, human", "conditions": "HEK293 LIG4−/− cell line"}, "[15]": {"system": "HCT116 BRCA2−/− xenograft tumors", "assay": "HCT116 BRCA2−/− xenograft efficacy", "type": "in vivo, mouse", "conditions": "80 mg/kg BID PO, BRCA2-deficient HCT116"}, "[16]": {"target": "Pol μ (Homo sapiens, UniProt Q9NP87)", "assay": "DNA polymerase selectivity, Pol μ"}, "[17]": {"assay": "PK on days 1 and 7 of BID oral dosing in CD-1 nude mice", "type": "in vivo", "conditions": "Day 7 vs Day 1, BID oral"}, "[18]": {"conditions": "nude mice, 80 mg/kg BID PO, 21 days"}}, "data": [{"compound": "CC1CCc2nn(CC(=O)N(C)c3ccccc3)c(C(F)(F)F)c21", "note": "(stereo not drawn) [Compound 9]", "values": [{"measurement": "thermal stabilization of WT Polθ", "setting": "[1]", "value": "did not show any thermal stabilization"}]}, {"compound": "CN(C(=S)Cn1nc2c(c1C(F)(F)F)CCC2)c1ccccc1", "note": "[Compound 14]", "values": [{"measurement": "thermal stabilization of WT Polθ", "setting": "[1]", "value": "did not show any thermal stabilization"}]}, {"compound": "CN(C(=O)Cc1ccc(C(F)(F)F)cc1C(F)(F)F)c1ccccc1", "note": "[Compound 15]", "values": [{"measurement": "major routes of metabolism", "setting": "[2]", "value": "N-demethylation and hydroxylation of the phenyl ring"}, {"measurement": "major routes of metabolism", "setting": "[3]", "value": "N-demethylation and hydroxylation of the phenyl ring"}, {"measurement": "microsomal CLint", "setting": "[4]", "value": "> 555", "unit": "µL/min/mg"}]}, {"compound": "Nc1ccc(C#CCN(C(=O)Cc2ncc(C(F)(F)F)cc2C(F)(F)F)c2ccc(F)cc2)nn1", "note": "[RP-6685, N-[3-(6-Aminopyridazin-3-yl)prop-2-ynyl]-2-[3,5-bis(trifluoromethyl)-2-pyridyl]-N-(4-fluorophenyl)acetamide]", "values": [{"measurement": "MTD at 21 days", "setting": "[5]; female, CD1 Nude, mouse, in vivo, po, 80 mg/kg BID", "value": 80, "unit": "mg/kg"}, {"measurement": "body weight change", "setting": "[5]; [18]", "value": "no significant body weight loss"}, {"measurement": "tolerability", "setting": "[5]; [18]", "value": "well tolerated"}, {"measurement": "IC50", "setting": "[6]", "value": "> 100000", "unit": "nM"}, {"measurement": "activity on Pol ε", "setting": "[6]", "value": "inactive"}, {"measurement": "activity on the ATPase activity of full-length Polθ", "setting": "[7]", "value": "inactive"}, {"measurement": "activity on Pol λ", "setting": "[8]", "value": "inactive"}, {"measurement": "tumor growth inhibition", "setting": "[9]", "value": "no tumor growth inhibition"}, {"measurement": "Papp", "setting": "[10]", "value": 6.2, "unit": "×10⁻⁶ cm/s"}, {"measurement": "PD markers micronuclei and γH2AX", "setting": "[11]", "value": "modest trend towards increased micronuclei and γH2AX"}, {"measurement": "clearance", "setting": "[12]", "value": 36.8, "unit": "mL/min/kg"}, {"measurement": "IC50", "setting": "[13]", "value": 500, "unit": "nM"}, {"measurement": "effect on MMEJ in TLR assay", "setting": "[14]", "value": "dose-dependent decrease in MMEJ"}, {"measurement": "difference to vehicle by Day 21", "setting": "[15]", "value": "not statistically significant"}, {"measurement": "activity on Pol μ", "setting": "[16]", "value": "inactive"}, {"measurement": "decline of exposure over the week of dosing", "setting": "[17]", "value": "55 – 67%"}]}]}
